According to patent publication US7517840B2, “Optimized perfumery for rinse-off products” (Givaudan Fragrances Corporation, priority 2005, dated 2009):
“Also recorded” adds a separate entry of the source. Like-named read-outs stand apart in the source and are kept apart here.

Assays:
[1] = Calculated pseudo-acceleration (Γ) of odorants in water, water-air and air
From the text: In the analysis of the volatility of odorants, several variables are found to be important. First, the vapor pressure of the odorant is an important measure of its volatility. The product of the odorant's activity coefficient γ in the partition its mole fraction X and its pure vapor pressure value Pv, gives the odorant's relative vapor pressure. A second important factor for volatility is the diffusivity D12 of the odorant in the considered media: water, vapor phase and subsequently air.
Other important variables to consider are the molecular weight Mw, of the odorant and its density in the partition ρl and in the solvent vapor state ρv. The final variable to consider is an energy parameter in the partition state. The energy difference ε12=ε12(polar)−ε12o(non-polar) is proportional to the partition coefficient of an odorant in a polar solvent such as water, and a water immiscible solvent such as octanol, benzene and paraffin liquid. The energy ε12 is called the partition energy and can be correlated to the clogP value of odorants.
The five variables D12, Pv, Mw, ρv and ε12 and the three dimensional variables indicate that there can be 5−3=2 dimensional variables which describe Newton's law. The easiest separation is to break the acceleration vector into 2 dimensional quantities: a frequency or first order rate constant (1/time) and a velocity (distance/time) term.
The velocity group can be formed from the vapor pressure and density. Since pressure has units of mass*distance/distance^2*time^2, and density has units of mass/distance^3, the ratio of the two has units of velocity squared. The square root gives the desired velocity.
The first order rate constant can be formed from the variables Mw, D12 and ε12. Since the partition energy ε12 has dimensions of calories per mole (mass.length^2/mole.time^2) and the diffusivity coefficient D12 has a dimension of distance^2 per time, the ratio yields exactly a molecular weight unit per time t. The energy can be made dimensionless by dividing by the gas constant k and temperature T. The remaining variable D12 can be made to a frequency by dividing by a cross sectional area L^2. A molecular area calculated from the liquid molar volume could represent this area.
Pseudo acceleration values are also closely linked to the ability of an odorant to travel through headspace once it is airborne in addition to its ability to migrate through the water and water-air partitions.

[2] = cited from earlier work; for exp ODT water: Booleans database; for Odor Detection Threshold: Table 24, Floral fragrance
[3] = GC-MS headspace release profile of perfume in shampoo, 1/100 dilution in water; assay type: physicochemical; details: Tropical Fruit Perfume
Description: Experimental Procedure: Individual odorant to be tested was added to 20 g of shampoo formulation (see formula below in Table 4) at 0.1%.
A 10 gram sample of formulation and fragrance was added to an empty 1000 ml pyrex beaker. This beaker was then filled with 1000 ml of 120 F tap water. Beaker with diluted shampoo sample was then immediately placed into a semi-enclosed plexiglass chamber.
Headspace Sampling: Once beaker was placed into chamber a Carboxan SPME field fiber was held at the top-side opening of the chamber over the beaker containing the sample. […] […] Top of plexiglass chamber was held open for entire 5 minutes of headspace sampling.

[4] = Randebrock 1986; cited from earlier work
[5] = cited from earlier work

SMILES | release category by Γ [1] | GC Abundance ([3]; 20 seconds) | GC Abundance ([3]; 30 seconds) | GC Abundance ([3]; 40 seconds) | GC Abundance ([3]; 50 seconds) | also measured
CCC=CCCC=CC=O [2,6-NONADIENAL] | flash release | – | – | – | – | ODT ([2]; Table 26, cucumber-melon note): 50 ppb or less; odor detection threshold values in water [2]: 0.01 ppb
CC(=O)OC1CCCCC1C(C)(C)C (stereo not drawn) [VERDOX] | sustained release | 5000 | 14000 | 18000 | 20000 | –
C=C(C)[C@H]1CC=C(C)CC1 [d-LIMONENE, d-1-Methyl-4-isopropenyl-1-cyclohexene] | flash release; also recorded: flash-release | 7000 | 7000 | 5000 | 4000 | GC Abundance ([3]; 5 seconds): 7000; GC Abundance ([3]; 10 seconds): 7000
CCCCCCCCCCC=O [1-undecanal] | – | – | – | – | – | experimental odor detection threshold in air [4]: 0.00054 mg/m^3
CCCC(C)C(=O)OCC (stereo not drawn) [MANZANATE, Ethyl 2-methylpentanoate] | – | 4000 | 4000 | 3000 | 1500 | GC Abundance ([3]; 10 seconds): 1000; exp ODT water [2]: 0.0030 ppb; ODT ([2]; Table 17, apple note compounds): 50 ppb or less; odor detection threshold in water ([2]; text b188): 0.003 parts per billion
CCCCC/C=C/CCC=O [TRANS-4-DECEN-1-AL] | flash release | – | – | – | – | ODT ([2]; Table 32, citrus note): 50 ppb or less; Boiling Point ([5]; Table 33): 200 deg C.
CCC=CCCC=CCO [2,6 NONADIEN-1-OL] | sustained release | – | – | – | – | ODT ([2]; Table 26, cucumber-melon note): 50 ppb or less; odor detection threshold value in water [2]: 1 part per billion
CCOC(=O)C(C)CC (stereo not drawn) [ETHYL 2-METHYLBUTYRATE, Ethyl 2-methylbutyrate] | flash-release | 3100 | 3100 | 2000 | 1500 | GC Abundance ([3]; 10 seconds): 3000; exp ODT water [2]: 0.1-0.3 ppb; ODT ([2]; Table 17, apple note compounds): 50 ppb or less
CCCCCC1C(=O)CCC1CC(=O)OC (stereo not drawn) [HEDIONE] | – | – | – | – | 4000 | Odor Detection Threshold [2]: 50 ppb or less
CC(C)=CC1CC(C)CCO1 (stereo not drawn) [ROSE OXIDE (HIGH CIS), Tetrahydro-4-methyl-2-(2-methylpropen-1-yl)pyran] | – | 10000 | 14000 | 14000 | 14000 | exp ODT water [2]: 0.5 ppb
CCOC(=O)CC1(C)OCCO1 [FRUCTONE] | – | 3000 | 5000 | 5000 | 5000 | ODT ([2]; Table 17, apple note compounds): 50 ppb or less
CC(=O)C=CC1=C(C)CCCC1(C)C [IONONE BETA PURE, 4-(2,6,6-Trimethyl-1-cyclohexen-1-yl)-3-buten-2-one] | – | – | 2000 | 10000 | 18000 | exp ODT water [2]: 4-6 ppb; Odor Detection Threshold [2]: 50 ppb or less
C=CC(C)(O)CCC=C(C)C (stereo not drawn) [LINALOOL, linalool] | – | 18000 | 18000 | 18000 | 18000 | GC Abundance ([3]; 10 seconds): 500; Odor Detection Threshold [2]: 50 ppb or less
CC1=CCC(C(C)(C)S)CC1 (stereo not drawn) | flash release | – | – | – | – | ODT ([2]; Table 32, citrus note): 50 ppb or less; Boiling Point ([5]; Table 33): 229 deg C.
CC(C)c1cccc(C(C)CC=O)c1 (stereo not drawn) [FLORHYDRAL] | – | – | – | 9000 | 10000 | Odor Detection Threshold [2]: 50 ppb or less
CC(C)=CCCC(C)=CCS [THIOGERANIOL, 3,7-Dimethyl-2,6-octadien-1-thiol] | sustained release | – | – | – | – | ODT ([2]; Table 32, citrus note): 50 ppb or less; Boiling Point ([5]; Table 33): 250 deg C.; Boiling Point [5]: 250 °C
CC=CC(=O)C1C(C)=CCCC1(C)C (stereo not drawn) [alpha-DAMASCONE, α-1-(2,6,6-Trimethyl-2-cyclohexen-1-yl)-2-buten-1-one] | – | – | – | 1000 | 5000 | exp ODT water [2]: 1.5 ppb; ODT ([2]; Table 17, apple note compounds): 50 ppb or less
